Data on 2 molecules can be found in paper PMC4350332 (Oncotarget, 2014).

One data set concerns PDK. The note with it: stated in discussion, no own experiment; cited from earlier work.
Another data set concerns the target PDK-1 (Homo sapiens, UniProt Q15118). Description: PDK-1 fluorescence polarization assay (fluorescein-labelled ATP site probe). In kind it is binding. The arrangement: PDK-1: residues 30-436; made in house; host or cells: E. coli BL21. The following applies: titration with a probe concentration of 10 nM; read-out: Kd of PDK-1 protein with the probe. How it is done:
carbamoyl]-2-(6-hydroxy-3-oxo-3H-xanthen-9-yl)benzoic acid), which binds to the ATP site of PDK resulting in an increase in anisotropy.
The HSP-90ß FP assay was conducted as previously described.

Sequence of PDK-1 (Q15118 30-436): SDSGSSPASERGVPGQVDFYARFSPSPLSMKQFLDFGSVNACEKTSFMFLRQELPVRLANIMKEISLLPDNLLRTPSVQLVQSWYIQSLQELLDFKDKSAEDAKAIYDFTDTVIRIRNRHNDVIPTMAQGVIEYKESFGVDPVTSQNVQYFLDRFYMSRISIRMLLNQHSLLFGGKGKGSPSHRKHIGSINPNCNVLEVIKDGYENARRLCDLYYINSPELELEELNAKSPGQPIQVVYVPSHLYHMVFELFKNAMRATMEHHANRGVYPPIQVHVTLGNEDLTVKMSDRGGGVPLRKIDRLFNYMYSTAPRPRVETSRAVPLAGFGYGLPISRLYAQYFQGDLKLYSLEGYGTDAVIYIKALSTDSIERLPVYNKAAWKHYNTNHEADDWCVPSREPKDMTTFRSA

`O=C(O)C(Cl)Cl` [DCA]: the “Concentrations required to observe modulation of glycolytic activity and cytotoxicity” value in the data set with PDK is 5000 to 20000 µM.

`CCNC(=O)c1noc(-c2cc(Cl)c(O)cc2O)c1-c1ccc(CNC(=O)c2ccc(-c3c4ccc(=O)cc-4oc4cc(O)ccc34)c(C(=O)O)c2)cc1` [VER-160364, 5-[({4-[5-(5-chloro-2,4-dihydroxyphenyl)-3-(ethylcarbamoyl)-1,2-oxazol-4-yl]phenyl}methyl)carbamoyl]-2-(6-hydroxy-3-oxo-3H-xanthen-9-yl)benzoic acid]: the Kd on PDK-1 turned out to be 30 nM.

In general, Kd refers to a measure of binding affinity in units of concentration.
